The test system of one test is Staphylococcus aureus. Nature of the test: Antimicrobial activity against Staphylococcus aureus at 100 ug after 18 hrs by paper disk agar diffusion method. Particulars: read-out: IZ. It counts as functional. Background: Agar diffusion results depend on both activity and mobility in agar.
The subject of a further test is Candida albicans. The experiment in a line: Antimicrobial activity against Candida albicans at 100 ug after 18 hrs by paper disk agar diffusion method. Particulars: read-out: IZ. The class given is functional.
The test system of a further test is Candida tropicalis. Nature of the test: Antimicrobial activity against Candida tropicalis at 100 ug after 18 hrs by paper disk agar diffusion method. As to conditions: read-out: IZ. It counts as functional.
The nature of test [1]: Cytotoxicity against human NSCLC-N6 cells after 72 hrs by MTT assay. It counts as functional, cell-based. Particulars: NSCLC-N6, 72 h. For orientation: Tetrazolium dyes change colour on reduction, which living cells bring about.
In the next test the test system is P388. Nature of the test: Cytotoxicity against mouse P388 cells after 72 hrs by MTT assay. The class given is functional, cell-based. As to conditions: P388, 72 h.
A further test has as its system KB. Nature of the test: Cytotoxicity against human KB cells after 72 hrs by MTT assay. It counts as functional, cell-based.

≈ marks a conversion by molar mass, not a printed value.

As usually defined, the IC50 is the point on the concentration scale where inhibition reaches its midpoint. Read a high IC50 as weaker potency.

For `O=Cc1ccc(O)cc1` [4-HYDROXYBENZALDEHYDE], the zone of inhibition at 100 µg/disc worked out at 8 mm in the test on Staphylococcus aureus, 7 mm with Candida albicans and 7 mm in the test on Candida tropicalis.
In the case of `Nc1nc2cnncc2[nH]1`, the zone of inhibition at 100 µg/disc with Staphylococcus aureus was determined as 12 mm; with Candida albicans it was 10 mm; in the test on Candida tropicalis it was 11 mm. The IC50 was determined as 10 µg/mL (≈ 74 µM) in test [1], 12 µg/mL (≈ 88.8 µM) in the test on P388 and 5 µg/mL (≈ 37 µM) in the test with KB.

The record behind these values is ChEMBL document CHEMBL1148079, “Zarzissine, a new cytotoxic guanidine alkaloid from the Mediterranean sponge Anchinoe paupertas” (J Nat Prod, 1994).
